According to patent publication US12447154B2, “Use of pyrrolopyrimidine compound for treating hemophagocytic syndrome” (CHIA TAI TIANQING PHARMACEUTICAL GROUP CO., LTD., priority 2020, dated 2025):

System: patient diagnosed with hemophagocytic syndrome
Assay: Clinical protocol for hemophagocytic syndrome (patient cases)
Assay type: in vivo, human
Protocol: Example 1. Clinical Protocol for Hemophagocytic Syndrome
Method of administration: orally administered once before breakfast in the morning and once after 12 h, with 28 consecutive days of administration as one treatment cycle.
Drug: the compound of formula I in 5 mg or 20 mg tablets, the compound of formula I being shown as its stereoisomer, a compound of formula II
[drawing 5] 1.2. Inclusion Criteria • 1) Age ≥18 years; ECOG scoring: 0-3; an expected survival of more than 3 months; • 2) A patient unambiguously diagnosed as having a first occurrence or first recurrence of HLH according to the HLH-2004 criteria; • 3) Other medication for HLH, if any, has been interrupted for 2 weeks or more; it has been 4 weeks or more since major surgery, if any; • 4) Laboratory tests should meet the following: blood routine examination: hemoglobin (Hb)≥60 g/L; absolute neutrophil count (ANC)≥0.5×10^9/L; platelet (PLT)≥30×10^9/L; liver function: serum total bilirubin (TBIL)<171 μmol/L; renal function: serum creatinine (Cr)≤1.5×ULN; blood coagulation function: activated partial thromboplastin time (APTT) and international normalized ratio (INR)≤1.5×ULN; • 5) Female patients should agree to take contraceptive measures (such as intrauterine devices [IUD], contraceptives or condoms) during the study and for at least 6 months after the study; serum pregnancy test results should be negative within 7 days before the study, and the patients must not be breastfeeding; male subjects should agree to take contraceptive measures during the study and for at least 6 months after the study; • 6) Voluntary participation, written informed consent and good compliance. 1.3. Evaluation Method
The therapeutic effect was evaluated by referring to the criteria of “2018 HLH Chinese Expert Consensus”. During induction treatment, it was recommended to evaluate the therapeutic effect every 2 weeks.
1.4. Therapeutic Effects Case 1
(§1) A patient diagnosed with hemophagocytic syndrome was given 20 mg/dose of tablets of the compound of formula II according to the administration regimen described in 1.1. The blood was tested regularly for the plasma concentration. The indexes such as blood routine examination results, biochemical profile and blood coagulation were dynamically monitored, and the patient's condition and vital signs were continuously dynamically monitored closely.
as §1, with “15” for “20”

[1] = Case 2, 15 mg/dose tablets orally twice a day, after one administration cycle

## N#CC[C@H](C1CCCC1)n1cc(-c2ncnc3[nH]ccc23)c(N)n1 [compound of formula II]
Case 1, patient, 20 mg/dose tablets orally twice a day (12 h interval), after one administration cycle (28 days)
  disease status: remained stable
Case 1, patient, 20 mg/dose tablets orally twice a day, after one administration cycle (28 days)
  tolerability of the treatment: tolerable
Case 2, patient, 15 mg/dose tablets orally twice a day (12 h interval), after one administration cycle (28 days)
  disease status: remained stable
[1]
  ferritin level decrease: ≥ 25%
  sCD25 level decrease (factor): 3/2
  therapeutic effect evaluation (2018 HLH Chinese Expert Consensus criteria): partial response
  tolerability of the treatment: tolerable
